The term viability, T/C denotes the result in the treated group divided by that in the control group, in per cent. A word on the IC50: it is the concentration that gives 50% inhibition.

The experiment concerns 958667-338-R-J2-PDC tumor spheroids viability. As to the kind of experiment: Anticancer human tumor 958667-338-R-J2-PDC patient-derived colon adenocarcinoma cell line growth inhibition [PI3K]. To be noted: spheroids with HUVEC and MSC; for viability, T/C: stronger effect = lower value. The gist of the method: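 Agents were dosed from a top concentration near clinical Cmax (otherwise 10 microM) in half-log decrements, alone or combined with PI3K inhibitors. The spheroids contain tumor cells plus endothelial (HUVEC) and MSC stroma; viability is measured.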

Setting [1] is: curve of first compound, second compound 0.0316 µM.
[2] abbreviates: curve of first compound, second compound 0.1 µM.
[3] abbreviates: curve of first compound, second compound 0.316 µM.
[4] abbreviates: curve of first compound, second compound 1 µM.
Where [5] appears, read: curve of first compound, second compound 3.16 µM.
[6] abbreviates: curve of first compound, second compound 10 µM.
Where [7] appears, read: second compound 0.0316 µM, first compound 0.0316 µM.
The mark [8] stands for this setting: second compound 0.0316 µM, first compound 0.1 µM.
[9] abbreviates: second compound 0.1 µM, first compound 0.0316 µM.
Where [10] appears, read: second compound 0.1 µM, first compound 0.1 µM.
[11] abbreviates: second compound 0.316 µM, first compound 0.0316 µM.
[12] abbreviates: second compound 0.316 µM, first compound 0.1 µM.
Where [13] appears, read: second compound 1 µM, first compound 0.0316 µM.
The mark [14] stands for this setting: second compound 1 µM, first compound 0.1 µM.
Setting [15] is: second compound 3.16 µM, first compound 0.0316 µM.
[16] abbreviates: second compound 3.16 µM, first compound 0.1 µM.
Where [17] appears, read: second compound 10 µM, first compound 0.0316 µM.
Where [18] appears, read: second compound 10 µM, first compound 0.1 µM.

“And” between values parts separate entries of the source, which are not always exact repeats. Identical values can stand only once.
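Note: spheroids exposed to compounds for seven days before readout.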

Consider `CC(=O)c1c(C)c2cnc(Nc3ccc(N4CCNCC4)cn3)nc2n(C2CCCC2)c1=O`, for which the viability, T/C (compound 0.000316 µM) was 110% [middle of 4 runs]; the viability, T/C (compound 0.00316 µM) is 107% [middle of 4 runs]; the viability, T/C (compound 0.01 µM) is 109% (2×) and 88% and 111%; the viability, T/C (compound 0.0316 µM) is 99.5% and 114% (2×) and 106%; the viability, T/C (compound 0.1 µM) is 93.8% [middle of 4 runs]. The IC50 (curve of compound) was > 100 nM.

As for `Cn1ncc(Cl)c1-c1cc(C(=O)NC(CN)Cc2cccc(F)c2)sc1Cl` (stereo unspecified) + Cc1nc(NC(=O)N2CCCC2C(N)=O)sc1-c1ccnc(C(C)(C)C(F)(F)F)c1, the IC50 is 2450 nM under setting [1]; 2050 nM under setting [2]; 1880 nM under setting [3]; 1590 nM under setting [4]; 1310 nM under setting [5]; < 31.6 nM under setting [6]. Moreover, the viability, T/C under setting [7] is 88.2%; the viability, T/C under setting [8] is 84.3%; the viability, T/C (second compound 0.0316 µM, first compound 0.316 µM) was 89.2%; the viability, T/C (second compound 0.0316 µM, first compound 1 µM) is 70.5%; the viability, T/C (second compound 0.0316 µM, first compound 3.16 µM) is 44.7%; the viability, T/C (second compound 0.0316 µM, first compound 10 µM) was 37.2%. The viability, T/C is 84.4% under setting [9]; 81.7% under setting [10]; 97.5% (second compound 0.1 µM, first compound 0.316 µM); 69.5% (second compound 0.1 µM, first compound 1 µM); 41.3% (second compound 0.1 µM, first compound 3.16 µM); 34.8% (second compound 0.1 µM, first compound 10 µM). Further, the viability, T/C under setting [11] was 71.4%; the viability, T/C under setting [12] was 65.6%; the viability, T/C (second compound 0.316 µM, first compound 0.316 µM) is 64.6%; the viability, T/C (second compound 0.316 µM, first compound 1 µM) was 63.7%; the viability, T/C (second compound 0.316 µM, first compound 3.16 µM) is 39%; the viability, T/C (second compound 0.316 µM, first compound 10 µM) was 26.9%. The viability, T/C was 71.7% under setting [13]; 80.9% under setting [14]; 57.3% (second compound 1 µM, first compound 0.316 µM); 63.7% (second compound 1 µM, first compound 1 µM); 31.2% (second compound 1 µM, first compound 3.16 µM); 24.9% (second compound 1 µM, first compound 10 µM). For the same compound, the viability, T/C was 66.7% under setting [15]; 64.4% under setting [16]; 72% (second compound 3.16 µM, first compound 0.316 µM); 56% (second compound 3.16 µM, first compound 1 µM); 27.6% (second compound 3.16 µM, first compound 3.16 µM); 18.1% (second compound 3.16 µM, first compound 10 µM). Also, the viability, T/C is, setting by setting: under setting [17], 49.4%; under setting [18], 44.7%; (second compound 10 µM, first compound 0.316 µM) 46%; (second compound 10 µM, first compound 1 µM) 41.7%; (second compound 10 µM, first compound 3.16 µM) 23.8%; (second compound 10 µM, first compound 10 µM) 15.1%.

Turning to `CC(=O)c1c(C)c2cnc(Nc3ccc(N4CCNCC4)cn3)nc2n(C2CCCC2)c1=O` + Cc1nc(NC(=O)N2CCCC2C(N)=O)sc1-c1ccnc(C(C)(C)C(F)(F)F)c1, the IC50 reads like this: under setting [1], > 100 nM; under setting [2], > 100 nM; under setting [3], > 100 nM; under setting [4], > 100 nM; under setting [5], > 100 nM; under setting [6], > 100 nM. Moreover, the viability, T/C is 104% (second compound 0.0316 µM, first compound 0.000316 µM); 77.1% (second compound 0.0316 µM, first compound 0.001 µM); 96% (second compound 0.0316 µM, first compound 0.00316 µM); 94.3% (second compound 0.0316 µM, first compound 0.01 µM); 95.8% under setting [7]; 73.7% under setting [8]. In addition, the viability, T/C reads like this: (second compound 0.1 µM, first compound 0.000316 µM) 97.2%; (second compound 0.1 µM, first compound 0.001 µM) 96.8%; (second compound 0.1 µM, first compound 0.00316 µM) 106%; (second compound 0.1 µM, first compound 0.01 µM) 88.7%; under setting [9], 103%; under setting [10], 94.7%. In addition, the viability, T/C (second compound 0.316 µM, first compound 0.000316 µM) was 104%; the viability, T/C (second compound 0.316 µM, first compound 0.001 µM) was 83.1%; the viability, T/C (second compound 0.316 µM, first compound 0.00316 µM) was 84.4%; the viability, T/C (second compound 0.316 µM, first compound 0.01 µM) was 91.5%; the viability, T/C under setting [11] is 78.1%; the viability, T/C under setting [12] was 73.7%. Moreover, the viability, T/C is, setting by setting: (second compound 1 µM, first compound 0.000316 µM) 87.8%; (second compound 1 µM, first compound 0.001 µM) 78.5%; (second compound 1 µM, first compound 0.00316 µM) 73.4%; (second compound 1 µM, first compound 0.01 µM) 62.2%; under setting [13], 74.5%; under setting [14], 66.2%. The viability, T/C runs as follows: (second compound 3.16 µM, first compound 0.000316 µM) 72%; (second compound 3.16 µM, first compound 0.001 µM) 74%; (second compound 3.16 µM, first compound 0.00316 µM) 59.3%; (second compound 3.16 µM, first compound 0.01 µM) 67.2%; under setting [15], 70.3%; under setting [16], 71.9%. The viability, T/C was 52.8% (second compound 10 µM, first compound 0.000316 µM); 55.5% (second compound 10 µM, first compound 0.001 µM); 52.2% (second compound 10 µM, first compound 0.00316 µM); 55.4% (second compound 10 µM, first compound 0.01 µM); 51.4% under setting [17]; 58.5% under setting [18].

Regarding `Cn1ncc(Cl)c1-c1cc(C(=O)NC(CN)Cc2cccc(F)c2)sc1Cl` (stereo unspecified), the viability, T/C is 94.3% [middle of 4 runs] (compound 0.0316 µM); 92.4% [middle of 4 runs] (compound 0.1 µM); 91.9% [middle of 4 runs] (compound 0.316 µM); 74.7% [middle of 4 runs] (compound 1 µM); 53.8% [middle of 4 runs] (compound 3.16 µM); 39.3% [middle of 4 runs] (compound 10 µM).

These data come from PubChem BioAssay AID1963963 (Molecular Pharmacology Branch, DTP, NCI, 2024).
